Laboratory results taken from patent US10941158B2, “Pyrazole ACC inhibitors and uses thereof” (Gilead Apollo, LLC, priority 2015, dated 2021).
Converted amounts (≈) assume the structure as drawn. Like-named read-outs stand apart in the source and are kept apart here.

What was measured:
[1] = system: C. parapsilosis ATCC 22019; test: Anti-Fungal (Candida) Activity Assay, broth microtiter MIC; format: cell-based; conditions: Lodderomyces parapsilosis, read-out: MIC C. parapsilosis ATCC 22019
Method: (§1) Compounds of the present invention were evaluated in an Anti-Fungal Activity Assay. An exemplary procedure for the assay, which measures the susceptibility of various Candida species to anti-fungal compounds, follows. Compounds to be tested (including fluconazole and amphotericin B) were dissolved in DMSO to obtain a solution having a concentration of 1 mg/mL. […] All species were grown from frozen stock by directly plating on to freshly prepared Sabouraud Dextrose agar (BD, Difco) and incubated overnight in ambient air at 35° C. for 24 h. A direct suspension was prepared in RPMI 1640+MOPS (Lonza, Biowhittaker) by taking individual colonies from the overnight cultures using sterile swabs soaked in sterile saline. The concentration of the suspension was determined using pre-determined standard curves. […] Broth microtiter MIC challenge plates were prepared following CLSI guidelines (M27-A3, Vol. 28 No. 14). The original CLSI guidelines focused on reading Candida MICs after 48 h of incubation. As reading after only 24 h offers a clear advantage of patient care, QC limits are being established for all drugs at 24 h. That being said there are no known interpretive breakpoints for amphotericin B at 24 h and the current fluconazole interpretive breakpoints are based on a 48 h reading. The MIC for the test compounds were recorded at 48 h. All MIC determinations were achieved by visually comparing the growth found in the antibiotic challenged wells to that of the growth control.

C. albicans ATCC 90028 = test: as above; format: cell-based; conditions: read-out: MIC C. albicans ATCC 90028
Method: as §1

C. krusei ATCC 6258 = test: as above; format: cell-based; conditions: Pichia kudriavzevii, read-out: MIC C. krusei ATCC 6258
Method: as §1

human (hACC2) ACC2 = human (hACC2) ACC2 (Homo sapiens, UniProt O00763); test: In vitro Acetyl-CoA Carboxylase (ACC) inhibition assay (ADP-Glo), hACC2; format: biochemical
Method: The detailed procedure is as follows. […] 10 μL ADP glo reagent was added. […] 20 μL kinase detection reagent was added.
“NA” stands for “not assayed.”

Rhizoctonia solani (Rs) = test: Growth inhibition assay of fungal pathogens; format: cell-based; conditions: 48 h, read-out: Concentration at 90% Inhibition Rs
Method: (§2) Compounds of the present invention were evaluated in a growth inhibition assay to determine the ability to control the growth of fungal pathogens, such as Botrtyis cinerea (Bc), Collectotrichum graminicola (Cg). Diplodia maydis (Dm), Fusarium moniliforme (Fm), Fusarium virguliforme (Fv), Phytophthora capsici (Pc), Rhizoctonia solani (Rs), and Septoria tritici (St). Compounds to be tested were dissolved in DMSO at 2.5 mg/ml to produce compound stock solutions (“stocks”). Stocks were diluted with DMSO by a five-fold dilution in a 96-well stock plate, and two sets of final concentrations of 50, 10, and 2 ppm or 2, 0.4, and 0.08 ppm were obtained in vitro. A set of positive controls was also prepared, with various concentrations of Soraphen (2, 0.4, and 0.08 ppm), Metalaxyl (1.1, 0.22, and 0.04 ppm), and Metconazole (2, 0.4, and 0.08 ppm or 0.2, 0.04, and 0.008 ppm) after the five-fold dilutions. Negative controls on each plate included 2% DMSO, water, and a blank (media+2% DMSO). Fungal spores were isolated from previously sub-cultured plates of Botrtyis cinerea (Bc). Collectotrichum graminicola (Cg). Diplodia maydis (Dm), Fusarium moniliforme (Fm), Fusarium virguliforme (Fv), Phytophthora capsici (Pc), and Septoria tritici (St). The isolated spores were diluted to individual concentrations with a 17% V8 liquid media. For Rhizoctonia solani (Rs) and Pythium irregulare, 1.5 mm mycelial plugs were used in place of spores and ¼ Potato Dextrose Broth (PDB) was used for dilution. The spore concentrations and plug sizes were based on growth curves generated at 48 hours for each pathogen. In a second 96-well plate, the spores or mycelial plugs, media, diluted compound solutions, and controls were combined. Once the compound was added, a true final concentration of compound in each well was measured by an OD600 reading, which adjusted for any compound precipitation that might have occurred in the well. Plate readings were repeated at both 24 and 48 hours. The blank negative control was used as a background subtraction. Additional visual ratings were performed at both 24 and 48 hours for checking on precipitation and confirming efficacy. Visual and OD600 ratings of the compounds at 48 hours were compared to the 2% DMSO negative control, and the percent of pathogen growth inhibition was determined based on those values.

[2] = system: Collectotrichum graminicola (Cg); test: Growth inhibition assay of fungal pathogens; format: cell-based; conditions: 48 h, read-out: Concentration at 90% Inhibition Cg
Method: as §2

[3] = system: Phytophthora capsici (Pc); test: Growth inhibition assay of fungal pathogens; format: cell-based; conditions: for IC90: Phytophthora capsici, read-out: Concentration at 90% Inhibition Pc
Method: as §2

[4] = system: Fusarium virguliforme (Fv); test: Growth inhibition assay of fungal pathogens; format: cell-based; conditions: 48 h
Method: as §2

Botrtyis cinerea (Bc) = test: Growth inhibition assay of fungal pathogens; format: cell-based; conditions: 48 h, read-out: Concentration at 90% Inhibition Bc
Method: as §2

[5] = system: Fusarium moniliforme (Fm); test: Growth inhibition assay of fungal pathogens; format: cell-based; conditions: for IC90: Fusarium verticillioides, 48 h, read-out: Concentration at 90% Inhibition Fm
Method: as §2

Diplodia maydis (Dm) = test: Growth inhibition assay of fungal pathogens; format: cell-based; conditions: Stenocarpella maydis, 48 h, read-out: Concentration at 90% Inhibition Dm
Method: as §2

Septoria tritici (St) = test: Growth inhibition assay of fungal pathogens; format: cell-based; conditions: for IC90: Zymoseptoria tritici, read-out: Concentration at 90% Inhibition St
Method: as §2

[6] = read-out: Concentration at 90% Inhibition Fv, Table 4a, 48 hours
[7] = read-out: Concentration at 90% Inhibition Fv, Table 4b, 48 hours

human (hACC2) ACC2, sequence (O00763 whole entry): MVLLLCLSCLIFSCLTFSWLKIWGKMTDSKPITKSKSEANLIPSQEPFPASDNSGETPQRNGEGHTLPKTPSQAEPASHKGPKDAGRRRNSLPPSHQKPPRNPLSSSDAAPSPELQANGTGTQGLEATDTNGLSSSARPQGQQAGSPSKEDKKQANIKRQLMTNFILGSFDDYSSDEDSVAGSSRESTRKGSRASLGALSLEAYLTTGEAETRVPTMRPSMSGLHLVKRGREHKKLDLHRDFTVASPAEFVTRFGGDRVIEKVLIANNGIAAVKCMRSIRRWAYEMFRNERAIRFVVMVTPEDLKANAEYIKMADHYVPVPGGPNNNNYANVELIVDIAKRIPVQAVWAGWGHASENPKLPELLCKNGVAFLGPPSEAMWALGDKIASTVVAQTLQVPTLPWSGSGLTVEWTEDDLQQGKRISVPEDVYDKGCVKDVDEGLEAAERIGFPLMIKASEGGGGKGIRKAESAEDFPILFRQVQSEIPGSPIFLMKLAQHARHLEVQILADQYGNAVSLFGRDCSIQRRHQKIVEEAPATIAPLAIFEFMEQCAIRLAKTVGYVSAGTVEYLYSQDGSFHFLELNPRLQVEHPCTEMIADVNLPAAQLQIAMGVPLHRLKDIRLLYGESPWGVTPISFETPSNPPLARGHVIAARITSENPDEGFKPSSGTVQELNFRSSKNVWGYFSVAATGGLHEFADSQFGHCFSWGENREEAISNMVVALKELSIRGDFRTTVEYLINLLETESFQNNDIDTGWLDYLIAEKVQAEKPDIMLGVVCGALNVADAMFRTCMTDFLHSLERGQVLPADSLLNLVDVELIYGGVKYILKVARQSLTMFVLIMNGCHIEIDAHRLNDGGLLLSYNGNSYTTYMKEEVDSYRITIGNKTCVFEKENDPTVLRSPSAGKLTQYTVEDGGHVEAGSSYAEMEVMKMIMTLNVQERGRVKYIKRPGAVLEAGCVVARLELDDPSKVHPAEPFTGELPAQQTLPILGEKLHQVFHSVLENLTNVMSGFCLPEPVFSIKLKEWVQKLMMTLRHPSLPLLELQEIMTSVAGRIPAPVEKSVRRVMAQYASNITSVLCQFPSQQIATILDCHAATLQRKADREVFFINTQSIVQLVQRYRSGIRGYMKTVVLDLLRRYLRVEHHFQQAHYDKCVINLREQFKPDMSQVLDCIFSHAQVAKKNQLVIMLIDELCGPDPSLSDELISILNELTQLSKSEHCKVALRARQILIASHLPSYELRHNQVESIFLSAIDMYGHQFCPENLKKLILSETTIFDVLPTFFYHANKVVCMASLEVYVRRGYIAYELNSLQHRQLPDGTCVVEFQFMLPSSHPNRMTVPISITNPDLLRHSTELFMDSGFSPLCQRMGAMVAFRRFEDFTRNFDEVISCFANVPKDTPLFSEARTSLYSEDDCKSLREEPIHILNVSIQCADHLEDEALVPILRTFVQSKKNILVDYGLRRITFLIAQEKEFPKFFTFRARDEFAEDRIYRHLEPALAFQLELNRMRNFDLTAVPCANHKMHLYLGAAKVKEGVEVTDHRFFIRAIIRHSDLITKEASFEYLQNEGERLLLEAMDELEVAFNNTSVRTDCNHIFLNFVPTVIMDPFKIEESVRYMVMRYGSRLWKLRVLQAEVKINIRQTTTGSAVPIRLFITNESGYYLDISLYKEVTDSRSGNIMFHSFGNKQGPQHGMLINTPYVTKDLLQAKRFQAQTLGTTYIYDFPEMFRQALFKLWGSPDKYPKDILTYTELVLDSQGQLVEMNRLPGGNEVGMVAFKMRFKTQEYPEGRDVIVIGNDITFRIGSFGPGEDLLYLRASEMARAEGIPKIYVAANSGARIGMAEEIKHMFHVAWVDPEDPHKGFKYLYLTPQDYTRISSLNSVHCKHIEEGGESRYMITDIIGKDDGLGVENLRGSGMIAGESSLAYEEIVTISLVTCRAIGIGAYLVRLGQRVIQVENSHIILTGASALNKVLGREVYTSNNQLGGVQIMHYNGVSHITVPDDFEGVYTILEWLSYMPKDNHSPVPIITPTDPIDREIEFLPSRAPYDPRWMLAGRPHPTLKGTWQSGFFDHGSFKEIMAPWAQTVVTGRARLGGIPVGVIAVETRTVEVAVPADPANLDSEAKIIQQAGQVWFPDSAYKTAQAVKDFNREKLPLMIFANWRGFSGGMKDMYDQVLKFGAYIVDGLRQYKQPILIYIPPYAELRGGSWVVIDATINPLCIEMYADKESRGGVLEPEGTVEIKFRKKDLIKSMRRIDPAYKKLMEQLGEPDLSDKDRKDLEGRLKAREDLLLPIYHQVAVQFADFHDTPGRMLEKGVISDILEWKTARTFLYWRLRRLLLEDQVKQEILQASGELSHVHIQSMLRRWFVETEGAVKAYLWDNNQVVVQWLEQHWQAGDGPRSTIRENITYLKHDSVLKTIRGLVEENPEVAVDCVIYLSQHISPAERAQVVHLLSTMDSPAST

SMILES | MIC ([1]; ATCC22019, 48 h) [µg/mL] | MIC (C. albicans ATCC 90028; ATCC90028, 48 h) [µg/mL] | MIC (C. krusei ATCC 6258; ATCC6258, 48 h) [µg/mL] | IC50 (human (hACC2) ACC2) [µM] | IC90 (Rhizoctonia solani (Rs); Table 4a) [µg/mL] | IC90 (Rhizoctonia solani (Rs); Table 4b) [µg/mL] | IC90 ([2]; Table 4a) [µg/mL] | IC90 ([2]; Table 4b) [µg/mL] | IC90 ([3]; 48 h, Table 4a) [µg/mL] | IC90 ([3]; 48 h, Table 4b) [µg/mL] | IC90 [4, 6] [µg/mL] | IC90 [4, 7] [µg/mL] | IC90 (Botrtyis cinerea (Bc); Table 4a) [µg/mL] | IC90 (Botrtyis cinerea (Bc); Table 4b) [µg/mL] | IC90 [5] [µg/mL] | Concentration at 90% Inhibition Fm ([5]; Table 4b, 48 hours) | IC90 (Diplodia maydis (Dm); Table 4a) [µg/mL] | IC90 (Diplodia maydis (Dm); Table 4b) [µg/mL] | IC90 (Septoria tritici (St); 48 h, Table 4a) [µg/mL] | IC90 (Septoria tritici (St); 48 h, Table 4b) [µg/mL] | also measured
COc1ccc(F)cc1[C@H](Cn1c(=O)n(C(C)(C)C(=O)NC(C)C)c(=O)c2c(C)c(-n3cccn3)sc21)OC1CCOCC1 [Compound I-6, (R)-2-(1-(2-(5-fluoro-2-methoxyphenyl)-2-((tetrahydro-2H-pyran-4-yl)oxy)ethyl)-5-methyl-2,4-dioxo-6-(1H-pyrazol-1-yl)-1,4-dihydrothieno[2,3-d]pyrimidin-3(2H)-yl)-N-isopropyl-2-methylpropanamide] | 1.1 to 2 (≈ 1.75 to 3.19 µM) | 0.25 to 1 (≈ 0.398 to 1.59 µM) | 0.25 to 1 (≈ 0.398 to 1.59 µM) | 0.01 to 0.04 | > 50 | 10 (≈ 15.9 µM) | 10 (≈ 15.9 µM) | 2 (≈ 3.19 µM) | > 50 | > 50 | 2 (≈ 3.19 µM) | 2 (≈ 3.19 µM) | 2 (≈ 3.19 µM) | 2 (≈ 3.19 µM) | 0.4 (≈ 0.637 µM) | A (“A” provided a compound concentration of 0.4 ppm at 90% inhibition of fungal pathogens) | 10 (≈ 15.9 µM) | 2 (≈ 3.19 µM) | > 50 | > 50 | 
COc1ccc(F)cc1[C@H](Cn1c(=O)n(C(C)(C)C(=O)N2CCCC2)c(=O)c2c(C)c(-n3cccn3)sc21)OC1CCOCC1 [Compound I-7, (R)-1-(2-(5-fluoro-2-methoxyphenyl)-2-((tetrahydro-2H-pyran-4-yl)oxy)ethyl)-5-methyl-3-(2-methyl-1-oxo-1-(pyrrolidin-1-yl)propan-2-yl)-6-(1H-pyrazol-1-yl)thieno[2,3-d]pyrimidine-2,4(1H,3H)-dione] |  |  |  | 0.003 to 0.01 | 2 (≈ 3.13 µM) | 2 (≈ 3.13 µM) | 0.4 (≈ 0.625 µM) | 0.4 (≈ 0.625 µM) |  |  |  |  | 2 (≈ 3.13 µM) | 2 (≈ 3.13 µM) |  |  | 10 (≈ 15.6 µM) | 2 (≈ 3.13 µM) |  |  | MIC ([1]; ATCC22019, 3 replicates, MIC recorded at 48 h): 1.1 to 2 µg/mL (≈ 1.72 to 3.13 µM); MIC (C. albicans ATCC 90028; ATCC90028, 3 replicates, MIC recorded at 48 h): 1.1 to 2 µg/mL (≈ 1.72 to 3.13 µM); MIC (C. krusei ATCC 6258; ATCC6258, 3 replicates, MIC recorded at 48 h): 0.25 to 1 µg/mL (≈ 0.391 to 1.56 µM); IC90 ([3]; Table 4a, 48 hours): > 50 µg/mL; Concentration at 90% Inhibition Pc ([3]; Table 4b, 48 hours): D (“D” provided a compound concentration of >50 ppm at 90% inhibition of fungal pathogens); IC90 ([4]; Table 4a, 48 hours, read-out: Concentration at 90% Inhibition Fv): > 50 µg/mL; IC90 ([4]; Table 4b, 48 hours, read-out: Concentration at 90% Inhibition Fv): 10 µg/mL (≈ 15.6 µM); IC90 ([5]; Table 4a, 48 hours): 0.08 µg/mL (≈ 0.125 µM); IC90 ([5]; Table 4b, 48 hours): 0.08 µg/mL (≈ 0.125 µM); Concentration at 90% Inhibition St (Septoria tritici (St); Table 4b, 48 hours): D (“D” provided a compound concentration of >50 ppm at 90% inhibition of fungal pathogens); IC90 (Septoria tritici (St); Table 4a, 48 hours): > 50 µg/mL
COc1ccc(F)cc1[C@H](Cn1c(=O)n(C(C)(C)C(=O)N2CCCCC2)c(=O)c2c(C)c(-n3cccn3)sc21)OC1CCOCC1 [Compound I-8, (R)-1-(2-(5-fluoro-2-methoxyphenyl)-2-((tetrahydro-2H-pyran-4-yl)oxy)ethyl)-5-methyl-3-(2-methyl-1-oxo-1-(piperidin-1-yl)propan-2-yl)-6-(1H-pyrazol-1-yl)thieno[2,3-d]pyrimidine-2,4(1H,3H)-dione] | 0.25 to 1 (≈ 0.382 to 1.53 µM) | 0.25 to 1 (≈ 0.382 to 1.53 µM) | 0.25 to 1 (≈ 0.382 to 1.53 µM) | 0.01 to 0.04 | > 50 | 10 (≈ 15.3 µM) | 2 (≈ 3.06 µM) | 2 (≈ 3.06 µM) | > 50 | > 50 | 2 (≈ 3.06 µM) | 2 (≈ 3.06 µM) | 2 (≈ 3.06 µM) | 2 (≈ 3.06 µM) | 0.08 (≈ 0.122 µM) | AA (“AA” provided a compound concentration of 0.08 ppm at 90% inhibition of fungal pathogens) | 10 (≈ 15.3 µM) | 2 (≈ 3.06 µM) | > 50 | > 50 | 
